Literature values as cited in US6432971B1, “Method of prevention of prostatic carcinoma with 17β-N-monosubstituted-carbamoyl-4-aza-5α-androst-1-en-3-ones” (Merck & Co., Inc., priority 1991, dated 2002).

Experiments:
[1] = system: testosterone-5α-reductase; conditions: in vitro; Voigt and Hsia, Endocrinology 92, 1216 (1973)
[2] = system: female hamster flank organ; conditions: for effect on flank organ response elicited by 5α-dihydrotestosterone: concomitant administration with topical 5α-dihydrotestosterone; for effect on flank organ response elicited by testosterone: concomitant administration with topical testosterone

Row | Structure (SMILES) | inhibition of testosterone-5α-reductase [1] | effect on flank organ response elicited by 5α-dihydrotestosterone [2] | effect on flank organ response elicited by testosterone [2]
1 | C[C@]12CC[C@H]3[C@@H](CCC4=CC(=O)CC[C@@]43C)[C@@H]1CC[C@@H]2C(=O)O [4-androsten-3-one-17β-carboxylic acid] | active inhibitors of testosterone-5α-reductase in vitro | did not inhibit the response elicited by 5α-dihydrotestosterone | inhibited the response elicited by testosterone
2 | COC(=O)[C@H]1CC[C@H]2[C@@H]3CCC4=CC(=O)CC[C@]4(C)[C@H]3CC[C@]12C [methyl 4-androsten-3-one-17β-carboxylate] | active inhibitors of testosterone-5α-reductase in vitro | did not inhibit the response elicited by 5α-dihydrotestosterone | inhibited the response elicited by testosterone
